The values below come from US11396517B1, “Exo-aza spiro inhibitors of menin-MLL interaction” (Janssen Pharmaceutica NV, priority 2017, dated 2022).

Experiment [1] addresses T1, menin (Homo sapiens, UniProt O00255, T541A).
T1 construct: Menin (a.a. 1-610-6×his tag)
T1 sequence (O00255 with tags, fused parts or gaps T541A): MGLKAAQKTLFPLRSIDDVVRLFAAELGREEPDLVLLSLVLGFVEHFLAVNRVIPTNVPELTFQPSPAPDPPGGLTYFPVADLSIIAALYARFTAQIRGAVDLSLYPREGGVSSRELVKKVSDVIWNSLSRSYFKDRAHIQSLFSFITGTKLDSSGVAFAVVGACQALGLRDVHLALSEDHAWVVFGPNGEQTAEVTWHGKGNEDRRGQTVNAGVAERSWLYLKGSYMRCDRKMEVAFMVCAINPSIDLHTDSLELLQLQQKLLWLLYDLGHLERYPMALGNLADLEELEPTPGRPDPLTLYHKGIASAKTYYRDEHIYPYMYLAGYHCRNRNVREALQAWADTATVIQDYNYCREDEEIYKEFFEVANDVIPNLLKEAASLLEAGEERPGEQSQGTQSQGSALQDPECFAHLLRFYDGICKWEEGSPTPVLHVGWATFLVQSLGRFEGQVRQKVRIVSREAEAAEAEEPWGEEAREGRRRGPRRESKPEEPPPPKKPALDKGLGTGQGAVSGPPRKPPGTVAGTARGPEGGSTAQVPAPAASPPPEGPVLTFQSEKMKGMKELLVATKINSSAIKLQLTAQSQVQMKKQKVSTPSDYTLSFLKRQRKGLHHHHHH
Put plainly: Menin/MLL homogenous time-resolved fluorescence (HTRF) assay. Format: binding. A digest of the protocol:
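Displacement of 75 nM FITC-MBM1 from terbium-cryptate-labeled His-tagged menin 1-610 ([…]) was read as the 520/490 nm HTRF ratio. Compound (11-point, 3-fold series) got 5 min with menin before peptide, then 15 min at ambient; 0.5% DMSO, Tris pH 7.5.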
A general note: TR-FRET usually uses a lanthanide donor and a delayed reading to cut background.

Experiment [2] has as its system MV-4-11. Put plainly: Proliferation assay A (spheroid assay) MV-4-11. Format: cell-based, human. As to conditions: MV-4-11 cells, 8 d, AUC of confluence against time, absolute IC50, read-out: (3a) Spheroid assay MV-4-11 (IC50(μM)) Assay A. The protocol: 3a) Proliferation Assay A
The anti-proliferative effect of menin/MLL protein/protein interaction inhibitor test compounds was assessed in human leukemia cell lines. The cell lines MV-4-11 and MOLM14 harbor MILL translocations and express the MILL fusion proteins MLL-AF4 and MLL-AF9, respectively, as well as the wildtype protein from the second allele. […] K562 was used as a control cell line containing two MLL wildtype alleles in order to exclude compounds that display general cytotoxic effects.
MV-4-11 and MOLM14 were cultured in RPMI-1640 (Sigma Aldrich) supplemented with 10% fetal bovine serum (HyClone), 2 mM L-glutamine (Sigma Aldrich) and 50 μg/ml gentamycin (Gibco). K562 were propagated in RPMI-1640 (Sigma Aldrich) supplemented with 20% fetal bovine serum (HyClone), 2 mM L-glutamine (Sigma Aldrich) and 50 μg/ml gentamycin (Gibco).
In order to assess the anti-proliferative effects, 1,500 MV-4-11, 300 MOLM14 or 750 K562 cells were seeded in 200 μl media per well in 96-well round bottom, ultra-low attachment plates (Costar, catalogue number 7007). Cell seeding numbers were chosen based on growth curves to ensure linear growth throughout the experiment. Test compounds were added at different concentrations and the DMSO content was normalized to 0.3%. Cells were incubated for 8 d at 37° C. and 5% CO2. Spheroid like growth was monitored in real-time by live-cell imaging (IncuCyteZOOM, Essenbio, 4× objective) acquiring one image every four hours for 8 d. Confluence (%) as a measure of spheroid size was determined using an integrated analysis tool.
In order to determine the cumulative effect of the test compounds over time, the area under the curve (AUC) in a plot of confluence against time was calculated. Confluence at the beginning of the experiment (t=0) was used as baseline for the AUC calculation.
Absolute IC50 values were calculated according to the following procedure: % Control=(AUC sample/AUC control)*100
AUC control mean AUC of control values (cells without compound/DMSO as vehicle control)
A non-linear curve fit was applied using the least squares (ordinary) fit method to the plot of % control versus compound concentration. Based on this, the absolute IC50 value (half maximal inhibitory concentration of the test compound causing an anti-proliferative effect of 50% relative to the vehicle control) was calculated.

Where [3] appears, read: location 2, read-out: (2) location 2 Menin HTRF assay (IC50 (nM)).
The mark [4] stands for this setting: location 1, read-out: (2) location 1 Menin HTRF assay (IC50 (nM)).

Read-outs that look alike come from different tables or passages of the source. Bounds are passed on as bounds.

Broadly, the IC50 is the midpoint of a concentration-inhibition curve. In the case of `O=S(=O)(NC1CC2(CCN(c3ncnc4sc(CC(F)(F)F)cc34)C2)C1)c1ccccc1` (mixture of isomers) [Compound 22], the IC50 in experiment [1] (setting [3]) came out at 450 nM; in experiment [2] (Homo sapiens, MV4-11, 192 h), 3.55 µM.

Regarding `FC(F)(F)Cc1cc2c(N3CCC4(CC(Nc5ccccc5)C4)C3)ncnc2s1` (mixture of isomers) [Compound 35], the IC50 in experiment [1] (setting [3]) is 48.6 nM; in experiment [2] (Homo sapiens, MV4-11, 192 h), 4.9 µM.

In the case of `CN(C)CC1CC2(CCN(c3ncnc4sc(CC(F)(F)F)cc34)C2)C1` (mixture of isomers) [Compound 196], the IC50 turned out to be 133 nM in experiment [1] (setting [3]) and 3.91 µM in experiment [2] (Homo sapiens, MV4-11, 192 h).

On to `Nc1nc(N2CCC3(CC(NCc4ccccc4)C3)C2)c2cc(CC(F)(F)F)sc2n1` (mixture of isomers) [Compound 263], for which the IC50 in experiment [1] (setting [3]) was 47.3 nM; in experiment [2] (Homo sapiens, MV4-11, 192 h), 1.23 µM.

With `CNS(=O)(=O)c1ccc(NC2CC3(CCN(c4ncnc5sc(CC(F)(F)F)cc45)C3)C2)cc1` (mixture of isomers) [Compound 316], the IC50 in experiment [1] (setting [3]) was 8.8 nM; in experiment [2] (Homo sapiens, MV4-11, 192 h), 1.26 µM.

As to `FC(F)(F)Cc1cc2c(N3CCC4(CC(Nc5ccc(-c6cn[nH]c6)cc5)C4)C3)ncnc2s1` (mixture of isomers) [Compound 326], the IC50 in experiment [1] (setting [3]) came to 20.1 nM; in experiment [2] (Homo sapiens, MV4-11, 192 h), 0.91 µM.

Consider `CC(=O)Nc1ccc(NC2CC3(CCN(c4ncnc5sc(CC(F)(F)F)cc45)C3)C2)cc1` (mixture of isomers) [Compound 330], for which the IC50 amounted to 19.6 nM in experiment [1] (setting [3]) and 1.26 µM in experiment [2] (Homo sapiens, MV4-11, 192 h).

Take `N#CCc1ccc(NC2CC3(CCN(c4nc(N)nc5sc(CC(F)(F)F)cc45)C3)C2)cc1` (mixture of isomers) [Compound 377]: the half-maximal inhibitory concentration (IC50) worked out at 7.5 nM in experiment [1] (setting [3]) and 1.12 µM in experiment [2] (Homo sapiens, MV4-11, 192 h).

Turning to `CNc1nc(N2CCC3(CC(Nc4ccc5[nH]c(=O)[nH]c5c4)C3)C2)c2cc(CC(F)(F)F)sc2n1` (mixture of isomers) [Compound 393], the IC50 in experiment [1] (setting [3]) was 68.3 nM; in experiment [2] (Homo sapiens, MV4-11, 192 h) it was 2.6 µM.

Turning to `CNc1nc(N2CCC3(CC(Nc4ccc5oc(=O)[nH]c5c4)C3)C2)c2cc(CC(F)(F)F)sc2n1` (mixture of isomers) [Compound 396], the IC50 in experiment [1] (setting [3]) was 17.8 nM; in experiment [2] (Homo sapiens, MV4-11, 192 h) it was 1.8 µM.

On to `CNS(=O)(=O)c1ccc(NC2CCC3(C2)CN(c2ncnc4sc(CC(F)(F)F)cc24)C3)cc1` (racemic) [Compound 279], for which the IC50 in experiment [1] (setting [3]) was 82.9 nM; in experiment [2] (Homo sapiens, MV4-11, 192 h), more than 3.75 µM.

Regarding `FC(F)(F)Cc1cc2c(N3CCC4(CCC(NCc5ccccc5)CC4)C3)ncnc2s1` (single isomer, unassigned) [Compound 2], the IC50 is 91.2 nM in experiment [1] (setting [4]); 84.5 nM in experiment [1] (setting [3]); 1.64 µM in experiment [2] (Homo sapiens, MV4-11, 192 h).

Regarding `FC(F)(F)Cc1cc2c(N3CC[C@]4(CC[C@@H](NCc5ccccc5)C4)C3)ncnc2s1` (single isomer, unassigned) [Compound 5], the IC50 in experiment [1] (setting [4]) amounted to 304 nM; in experiment [1] (setting [3]), 63.8 nM; in experiment [2], 1.69 µM.

Turning to `N#CCc1ccc(NC2CC3(CCN(c4ncnc5sc(CC(F)(F)F)cc45)C3)C2)c(Cl)c1` (single isomer, unassigned) [Compound 208], the IC50 in experiment [1] (setting [3]) came to 37.7 nM; in experiment [2] (Homo sapiens, MV4-11, 192 h), 3.16 µM.

In the case of `N#CCc1ccc(NC2CC3(CCN(c4ncnc5sc(CC(F)(F)F)cc45)C3)C2)cc1Cl` (single isomer, unassigned) [Compound 211], the IC50 is 18.2 nM in experiment [1] (setting [3]) and 2.13 µM in experiment [2] (Homo sapiens, MV4-11, 192 h).

Regarding `CNc1nc(N2CCC3(CC(Nc4ccccc4)C3)C2)c2cc(CC(F)(F)F)sc2n1` (single isomer, unassigned) [Compound 269], the IC50 is 78.6 nM in experiment [1] (setting [3]) and more than 3.75 µM in experiment [2] (Homo sapiens, MV4-11, 192 h).

For the compound `CNS(=O)(=O)c1ccc(N[C@H]2CCC3(C2)CN(c2ncnc4sc(CC(F)(F)F)cc24)C3)cc1` (single isomer, unassigned) [Compound 291], the IC50 in experiment [1] (setting [3]) was 51.9 nM; in experiment [2] (Homo sapiens, MV4-11, 192 h), more than 3.75 µM.

For `O=C1Cc2ccc(N[C@@H]3CCC4(C3)CN(c3ncnc5sc(CC(F)(F)F)cc35)C4)cc2N1` (single isomer, unassigned) [Compound 293], the IC50 came out at 11 nM in experiment [1] (setting [3]) and 2.77 µM in experiment [2] (Homo sapiens, MV4-11, 192 h).
